For series [1], the system named is effects of monoamine oxidase inhibitor (nialamide). Kind of series: Potentiation of effects of monoamine oxidase inhibitor (nialamide) in mice, actimetric measurements. The series is classed as in vivo. More on the design: key: Potentiation of the effects of nial amide for the tested product was expressed in increasing number of + sign for a determined dose in mg/kg. The conditions noted are these: nialamide 100 mg/kg i.p. 30 minutes before, actimetric values every 30 minutes for 6 hours. The source says: The administration of a monoamine oxidase inhibitor to mice induces a hyperactive movement of the animals which is able to be potentiated by an antidepressant. […] Potentiation of the effects of nial amide for the tested product was expressed in increasing number of + sign for a determined dose in mg/kg.

Series [2] can be described thus: Acute toxicity, intraperitoneal. The conditions noted are these: mouse, in vivo, ip; mice, i.p., determined 48 hours later; read-out: DL50 dose which kills 50% of mice. As for the experimental part: The DL50 dose which kills 50% of mice after intraperitoneal administration of the tested compound was determined 48 hours later and the DL50 for the compounds is reported in Table III.

Series [3] relates to serotonine (5HT) uptake. Kind of series: Inhibition of serotonine (5HT) uptake in vitro in impure brain synaptosomes. It is filed as biochemical. The conditions noted are these: synaptosomes from entire brain of female rat 19 to 21 days old, 14C-5HT 10^-7 M, 37° C., 5 minutes; read-out: I.C. 50, 50% inhibiting concentration of 14C-5HT uptake. Here is the method: The inhibition of serotonine (5HT) uptake was measured in impure synaptosomes prepared from the entire brain of a female rat 19 to 21 days old using the technique of Kannengiesser et al [Biochemical Pharmacology, Vol. 22, (1973) p. 73].

Series [4] has as its system effects of L-dopa. The experiment in a line: Potentiation of effects of L-dopa in mice pretreated with iproniazide. The conditions noted are these: Mus musculus, ip, one hour before L-dopa 100 mg/kg i.p.; male mice, iproniazide 75 mg/kg i.p. 18 hours before; read-out: ED50 dose which potentiates by 50% the L-dopa effects. It is filed as in vivo. Here is the method: The administration of L-dopa to mice pretreated 18 hours previously with iproniazide produced certain number of symptoms; muscular hypertonicity, hyperactivity, agitation crying, aggressiveness, salivation and exophthalmy. The intensity of these effects is potentiated by administration of an antidepressant one hour before the administration of L-dopa. Male mice received intraperitoneally 75 mg/kg of iproniazide 18 hours before the start of the test and the tested product was intraperitoneally administered in aqueous solution in increasing doses. One hour later, L-dopa was intraperitoneally administered at a dose of 100 mg/kg and the different symptoms were observed 15 and 30 minutes later. They were evaluated on a scale of 0 to 3 for each animal and the totals for each dose were determined.

Where a name gives a salt, the structure may show the parent alone.

Consider five compounds from patent publication US4117164A, “Aminomethyl-benzocycloheptenes and method of use” (Roussel Uclaf, priority 1976, dated 1978).

In general, ED50 refers to the midpoint of the dose-response relation.

As for `CN(C)CC1C=Cc2cc([N+](=O)[O-])ccc2CC1` (stereo not drawn) [1 - 2], the “Potentiation of Nialamide” value in series [1] (5 mg/kg i.p.) and in series [1] (20 mg/kg i.p.) was “+” each time. The LD50 at 48 h in series [2] amounted to 150 mg/kg. Moreover, the IC50 in series [3] came to 630 nM.

On to `CNCC1C=Cc2cc([N+](=O)[O-])ccc2CC1` (stereo not drawn) [Example 3, N-methyl-2-nitro-6,7-dihydro [5H] benzocycloheptene-7-methanamine hydrochloride], for which the ED50 in series [4] stood at 20 mg/kg. Further, the “Potentiation of Nialamide” value in series [1] (20 mg/kg i.p.) was “+”. Further, the LD50 at 48 h in series [2] stood at 100 mg/kg. For the same compound, in series [3], the IC50 amounted to 590 nM.

In the case of `CNCC1C=Cc2cc(N)ccc2CC1` (stereo not drawn) [Example 4, di-(N-methyl-2-amino-6,7-dihydro [5H]benzocycloheptene-7-methanamine) fumarate], in series [2], the LD50 at 48 h was determined as 100 mg/kg. Besides, the IC50 in series [3] turned out to be 6800 nM.

Take `CNCC1C=Cc2cc(OC)ccc2CC1.Cl` (stereo not drawn) [Example 5, N-methyl-2-methoxy-6,7-dihydro [5H] benzocycloheptene-7-methanamine hydrochloride]: the median effective dose (ED50) in series [4] came to 50 mg/kg. In series [2], the LD50 at 48 h was 100 mg/kg. In series [3], the IC50 is 1400 nM.

With `CNCC1C=Cc2cc(O)ccc2CC1.Cl` (stereo not drawn) [Example 6, 7-methylaminomethyl-6,7-dihydro [5H] benzocycloheptene-2-ol-hydrochloride], in series [4], the ED50 is 20 mg/kg. In addition, the “Potentiation of Nialamide” value in series [1] (5 mg/kg i.p.) and in series [1] (20 mg/kg i.p.) was “+” each time. Further, the LD50 at 48 h in series [2] came out at 75 mg/kg. Also, the IC50 in series [3] was found to be 980 nM.
